Data as given in patent US11426422B2, “SHP2 inhibitors and methods of use thereof” (Research Development Foundation, priority 2018, dated 2022).

How the values were obtained:
[1] = body weight of HFD-fed mice; assay type: in vivo; conditions: 60 mg/kg daily oral gavage; 7 days post administration
Procedure: FIGS. 8A-B. Effects of the SHP2 inhibitor on body weight and insulin signaling in HFD-WT mice. […] Mean±SD. (FIG. 8B) Quantification of the relative band intensities in FIG. 3E. Mean±SD; n=3 independent experiments.
(§1) The IR staining at the PM in liver sections from mice fed with HFD was weak, and insulin stimulation further reduced it and caused IR endocytosis (FIGS. 3C and D).
All animals were maintained in a specific antigen-free barrier facility with 12 h light/dark cycles (6 AM on and 6 PM off). Mice were fed a standard rodent chow (2016 Teklad Global 16% protein rodent diet, Harlan Laboratories). For inducing insulin resistance, C57BL/6J (Stock No. 000664, Jackson laboratory) were fed a high-fat (60%) diet (OpenSource Diets, Cat. No. D12492). For in vivo pharmacological assays, 6-8-weeks-old male mice were fed high-fat diet (HFD) for 5 weeks. Two days before drug administration, mice were switched to normal chow. […] For glucose tolerance test, mice were fasted for 14 h, and their blood glucose levels (T=0) were measured with tail bleeding using a glucometer (AlphaTRAK®). […] Blood glucose levels were measured at 15, 30, 60, and 120 min after glucose injection. For insulin tolerance test, mice fasted for 4 h were injected intraperitoneally with recombinant human insulin (Eli Lilly) at 1 U/kg body weight, and their blood glucose levels were measured at 0, 15, 30 and 60 min after injection.

IR in liver sections = test: IR staining at the PM in liver sections of HFD-fed mice; assay type: in vivo; conditions: 60 mg/kg oral for 6 days
Procedure: (FIG. 3A) Glucose tolerance test in 14 h fasted male mice fed a HFD for 5 weeks. […] At 1 day after drug treatment, glucose tolerance test was performed. Mean±SEM. (FIG. 3B) Insulin tolerance test of mice treated as described in FIG. 3A. Mean±SEM. […] The liver sections were stained with anti-IR (red) and DAPI (blue). Scale bars, 5 μm. (FIG. 3D) Quantification of the ratios of PM and IC IR signals of the livers in C (mean±SD; *p<0.0001). […] Cell lysates were blotted with the indicated antibodies.
as §1
The fixation, histological analysis, and immunohistochemistry of mouse tissues were performed as described previously (Choi et al., 2016). For human patient sample analysis, the deparaffinized sections were subjected to antigen retrieval with 10 mM sodium citrate (pH 6.0), incubated with 0.3% H2O2, blocked with 0.3% BSA, and then incubated first with anti-IR (CT3, Millipore®, 1:100) and anti-ZO1 (Thermo Scientific®, 1:200) antibodies and then with secondary antibodies (AlexaFluor® 568 goat anti-mouse and AlexaFluor® 488 goat anti-rabbit; Molecular Probes®). […] The total cell numbers and numbers of IR PM-positive cells were counted at least twice for individual images. Over 100 cells were analyzed for each patient samples. […]

[2] = system: HepG2 cells expressing IR-GFP mutants; test: cellular localization of IR-GFP mutants in HepG2 cells after inhibitors; assay type: cell-based; conditions: starved 14 h, inhibitors 4 h, no insulin
From the text: FIGS. 4A-E. Dysregulation of IR endocytosis as a potential contributing factor to human insulin resistance syndromes. (FIG. 4A) Representative images of liver specimens from human non-diabetes and diabetes patients stained with DAPI (blue) and anti-IR (red) and anti-ZO-1 (green) antibodies. Scale bars, 40 μm. (FIG. 4B) Quantification of the percentage of cells with positive IR PM signals in liver specimens in FIG. 4A (mean±SD; *p<0.0001). (FIG. 4C) HepG2 cells stably expressing IR-GFP R1020Q, V1054M, A1075D, V1086E, or I1143T were serum starved and stained with anti-GFP and anti-RAB7 antibodies. Scale bar, 5 μm. (FIG. 4D) Quantification of the ratios of PM and IC IR-GFP signals of cells in FIG. 4C (mean±SD; *p<0.0001). (FIG. 4E) Targeting feedback regulation of IR endocytosis for diabetes treatment. Left panel depicts the feedback regulation of IR endocytosis by ERK1/2 and SHP2 during unperturbed insulin signaling.
FIGS. 9A-D. Characterization of IR mutations found in human patients. (FIG. 9A) HepG2 cells expressing IR-GFP Class I mutants (P997T, V1012M, A1055V, K1095E, R1119Q, H1157R, R1191Q, Y1361C, or R1378Q) were starved for 14 h, treated with the indicated inhibitors for 4 h, and stained with anti-GFP (IR; green) and DAPI (blue). Scale bar, 5 m. (FIG. 9B) HepG2 cells expressing IR-GFP Class II mutants (R1020Q, V1054M, A1075D, V1086E, or I1143T) were analyzed as described in FIG. 9A. (FIG. 9C) HepG2 cells expressing IR-GFP Class III mutants (A1162E or W1220L) were analyzed as described in A. (FIG. 9D) HepG2 cells expressing IR-GFP WT, R1020Q, or V1054M were serum starved for 14 h and treated with DMSO or 80 μM Dynasore for 4 h. Cell lysates were blotted with the indicated antibodies.
Mutations of IR are known to cause inherited severe insulin resistance syndromes, but the mechanisms by which these mutations affect IR function have not been systematically explored. HepG2 cell lines were generated which stably expressed IR mutants fused to GFP, and the subcellular localization of these IR-GFP proteins was examined (FIGS. 9A-C and Table 1).
There were three distinct classes of IR mutants based on their subcellular localization in the unstimulated state. Class I mutants localized to the PM. […] Thus, certain IR mutations found in human insulin resistance syndromes perturbs IR kinase regulation and causes premature IR endocytosis.
Cellular localization of IR mutants was examined after inhibiting the SHP2 or MAPK pathways (FIGS. 4C-D, and FIGS. 9A-C).
Indirect immunofluorescence microscopy was performed on cells grown on coverslips and fixed in cold methanol at −20° C. for 10 min. The fixed cells were incubated with PBS for 30 min and 3% BSA in 0.1% PBST for 1 h, and then treated with diluted antibodies in 0.3% BSA in 0.1% PBST at 4° C. overnight. After being washed, cells were incubated with fluorescent secondary antibodies and mounted on microscope slides in ProLong Gold Antifade reagent with DAPI (Invitrogen). Images of fixed cells were acquired as a series of 0.4 m stacks with a DeltaVision® system (Applied Precision®, Issaquah, Wash.). Raw images were deconvolved using the iterative algorithm implemented in the softWoRx® software (Applied Precision®, Issaquash, Wash.). The central section of a 0.4 μm z-stack containing 3 contiguous focal planes was used for quantification. The cell edges were defined with Image J. The whole cell signal intensity (WC) and intracellular signal intensity (IC) were measured. The plasma membrane signal intensity (PM) was calculated by subtracting IC from WC. Identical exposure times and magnifications were used for all comparative analyses.

SMILES: CC1(N)CCN(c2cnc(-c3cccc(Cl)c3Cl)c(N)n2)CC1 [SHP099]
- body weight [1]: did not change the body weight
- insulin-activated IR endocytosis in liver (IR in liver sections; 5 U insulin via inferior vena cava): blocked insulin-activated IR endocytosis
- IR signal at the PM in liver (IR in liver sections; in the absence of insulin): elevated the IR signal at the PM
- PM levels of Class I and III IR mutants [2]: not those of Class I and III IR mutants
- PM levels of Class II IR mutants ([2]; R1020Q, V1054M, A1075D, V1086E, I1143T): significantly enhanced the PM levels of Class II IR mutants
